Reference: article PMC7504387, “Antimicrobial and Amyloidogenic Activity of Peptides Synthesized on the Basis of the Ribosomal S1 Protein from Thermus Thermophilus” (International Journal of Molecular Sciences, 2020)
Where a SMILES comes first, the peptide text is derived from it.

Tested on: T. thermophilus cells
Test: Mass spectrometry proteome analysis of peptide-treated T. thermophilus cells
Assay type: cell-based
Design: change in number of ribosomal proteins in comparison with the control: dose or concentration left out as unconfirmed
Settings: for Ribosomal Proteins (number detected, 3 or more identified peptides) / All Proteins / total protein detected (number) / detection of ribosomal S1 protein: 24 h; for Ribosomal Proteins (number detected, 3 or more identified peptides): control 51 (with S1), homogenization by freezing-thawing; for All Proteins / total protein detected (number): control 386; for detection of ribosomal S1 protein: control with S1; for Number of proteins, keyword Aminotransferase / Number of proteins, keyword Aromatic amino acid biosynthesis / Number of proteins, keyword DNA replication / Number of proteins, keyword Endonuclease / Number of proteins, keyword Histidine biosynthesis / Number of proteins, keyword Nuclease / Number of proteins, keyword One-carbon metabolism / Number of proteins, keyword Potassium / Number of proteins, keyword Purine salvage / Number of proteins, keyword S-adenosyl-L-methionine / Number of proteins, keyword Serine/threonine-protein kinase / Number of proteins, keyword tRNA processing: 0 μg/ml: 1; for Number of proteins, keyword Isoleucine biosynthesis / Number of proteins, keyword Ribosome biogenesis: 0 μg/ml: 2; for Number of proteins, keyword Aminopeptidase / Number of proteins, keyword Phosphoprotein / Number of proteins, keyword Purine biosynthesis / Number of proteins, keyword Redox-active center: 0 μg/ml: 3; for Number of proteins, keyword Glyoxylate bypass / Number of proteins, keyword Threonine biosynthesis: 0 μg/ml: 4; for Number of proteins, keyword Methionine biosynthesis: 0 μg/ml: 5; for Number of proteins, keyword Allosteric enzyme: 0 μg/ml: 6; for Number of proteins, keyword Serine protease: 0 μg/ml: 7; for Number of proteins, keyword NADP: 0 μg/ml: 8; for Number of proteins, keyword Protease: 0 μg/ml: 16; for Number of proteins, keyword Aminoacyl-tRNA synthetase: 0 μg/ml: 20; for Number of proteins, keyword Magnesium: 0 μg/ml: 23; for Number of proteins, keyword Hydrolase: 0 μg/ml: 26; for Unique proteins (number): control 100
Protocol: T. thermophilus cells were incubated with or without peptides for 24 h. […] The cell extract was not allowed to heat above +10 °C. Cell debris and aggregates were collected by sedimentation using centrifugation in a 221.23 V20 rotor of a Z 36 HK centrifuge (Hermle Labortechnik GmbH, Wehingen, Germany) at 20,000× g 20 min at +4 °C. The supernatant was dried using a vacuum Concentrator 5301 (Eppendorf, Hamburg, Germany). The prepared lysate was dissolved in 100 μL of 9M urea to denature the total protein. Then, 20 μL of cell lysates was separated by electrophoretic in 12% SDS-PAGE. Protein fractions were divided on three equal parts, that every part was chop and treated with trypsin protease. Mass spectrometry analysis of every part was carried out independently. To purify the samples treated with trypsin, filtration was carried out through ZipTips (MilliporeSigma, Burlington, MA, USA). Protein hydrolyzates were concentrated on a pre-column Acclaim PepMap 100 (C18, 3 μm particle size, 100 Å pore size, 300 μm inner diameter × 5 mm length) and separated on an analytical column Acclaim PepMap RSLC (2 μm particle size, 100 Å pore size, 75 μm inner diameter × 150 mm length) (Thermo Scientific, Waltham, MA, USA) using nanoflow liquid chromatograph EASY nLC 1000 (Thermo Scientific, Waltham, MA, USA). A high-performance mass spectrometer an Orbitrap Elite (Thermo Scientific, Dreieich, Germany) was used as a detector. Panoramic spectra were recorded in the mass range m/z 300–2000 at resolution 60,000; ion fragmentation was performed in an HCD cell; the fragmentation spectra were recorded at resolution 15,000. Preliminary selection of identified peptides with a molecular mass (MM) >600 Da was carried out according to the evaluation criteria of the PEAKS Studio 7.5 program (Bioinformatics Solution Inc., Waterloo, ON N2L 6J2, Canada). The peptides with the threshold function value T = −10·logP > 15 were considered significant, where P is the probability that false identification will reach the same or better match score. The T value of >15 corresponds to the p criterion <0.03 [29]. The received fragmentation spectra were analyzed by web-server Identipy. Identification of proteins in the mass spectra of the total protein was carried out using the database of the reference T. thermophilus proteome (Uniprot, No. UP000217909). Proteome data every part was summarized. Subsequent analysis was conducted by using the statistics software R with packages UniProt.ws, tidyverse, ggplot2, splitstackshape, reshape, readr, RVenn, UpSetR (https://rdrr.io/bioc/UniProt.ws/; https://CRAN.R-project.org/package=readr; https://CRAN.R-project.org/package=splitstackshape; https://CRAN.R-project.org/package=readr; https://CRAN.R-project.org/package=RVen).
Annotation of the certain proteins by keywords of the Uniprot database allows us to evaluate the changes in protein composition in 10 categories: biological process, cellular component, variety of coding sequences, molecular function, and others. The number of keywords corresponds to the number of annotated proteins.

## CC[C@H](C)[C@H](NC(=O)[C@H](CCC(=O)O)NC(=O)[C@@H](NC(=O)[C@H](Cc1ccccc1)NC(=O)[C@@H](NC(=O)CNC(=O)[C@H](Cc1ccccc1)NC(=O)[C@H](CC(=O)O)NC(=O)[C@@H](NC(=O)[C@@H](NC(=O)CNC(=O)CN(C)C(=O)CNC(=O)CNC(=O)[C@H](CCCNC(=N)N)NC(=O)[C@H](CCCNC(=N)N)NC(=O)[C@H](CCCNC(=N)N)NC(=O)[C@H](CCC(N)=O)NC(=O)[C@H](CCCNC(=N)N)NC(=O)[C@H](CCCNC(=N)N)NC(=O)[C@H](CCCCN)NC(=O)[C@H](CCCCN)NC(=O)[C@@H](N)CCCNC(=N)N)C(C)C)[C@@H](C)O)C(C)C)C(C)C)C(=O)O [R23I] (HELM PEPTIDE1{R.K.K.R.R.Q.R.R.R.G.G.[Sar].G.V.T.D.F.G.V.F.V.E.I}$$$$V2.0; N-terminus and C-terminus assumed)
R23I
  change in number of ribosomal proteins in comparison with the control: more than two-fold decrease
R23I 20 μg/mL
  less numbers of proteins detected relative to the control: 40%
R23I 20 μg/ml
  Common proteins for cells in control and treated cells (number): 20
  Ribosomal Proteins (number detected, 3 or more identified peptides): 42
  All Proteins / total protein detected (number): 232
  detection of ribosomal S1 protein: 42 (without S1)
  Number of proteins, keyword Aminotransferase: 0
  Number of proteins, keyword Aromatic amino acid biosynthesis: 0
  Number of proteins, keyword DNA replication: 0
  Number of proteins, keyword Endonuclease: 0
  Number of proteins, keyword Histidine biosynthesis: 0
  Number of proteins, keyword Nuclease: 0
  Number of proteins, keyword One-carbon metabolism: 0
  Number of proteins, keyword Potassium: 0
  Number of proteins, keyword Purine salvage: 0
  Number of proteins, keyword S-adenosyl-L-methionine: 0
  Number of proteins, keyword Serine/threonine-protein kinase: 0
  Number of proteins, keyword tRNA processing: 0
  Number of proteins, keyword Isoleucine biosynthesis: 0
  Number of proteins, keyword Ribosome biogenesis: 0
  Number of proteins, keyword Aminopeptidase: 0
  Number of proteins, keyword Phosphoprotein: 1
  Number of proteins, keyword Purine biosynthesis: 1
  Number of proteins, keyword Redox-active center: 0
  Number of proteins, keyword Glyoxylate bypass: 1
  Number of proteins, keyword Threonine biosynthesis: 1
  Number of proteins, keyword Methionine biosynthesis: 1
  Number of proteins, keyword Allosteric enzyme: 1
  Number of proteins, keyword Serine protease: 1
  Number of proteins, keyword NADP: 2
  Number of proteins, keyword Protease: 5
  Number of proteins, keyword Aminoacyl-tRNA synthetase: 7
  Number of proteins, keyword Magnesium: 9
  Number of proteins, keyword Hydrolase: 9
  Unique proteins (number): 11
R23I 50 μg/mL
  less numbers of proteins detected relative to the control: 48%
R23I 50 μg/mL, 201 to 386 proteins
  ratio of proteins from treated cells to proteins from intact cells: 0.52
R23I 50 μg/ml
  Common proteins for cells in control and treated cells (number): 9
  Ribosomal Proteins (number detected, 3 or more identified peptides): 39
  All Proteins / total protein detected (number): 201
  detection of ribosomal S1 protein: 39 (without S1)
  Number of proteins, keyword Aminotransferase: 0
  Number of proteins, keyword Aromatic amino acid biosynthesis: 0
  Number of proteins, keyword DNA replication: 0
  Number of proteins, keyword Endonuclease: 0
  Number of proteins, keyword Histidine biosynthesis: 0
  Number of proteins, keyword Nuclease: 0
  Number of proteins, keyword One-carbon metabolism: 0
  Number of proteins, keyword Potassium: 0
  Number of proteins, keyword Purine salvage: 0
  Number of proteins, keyword S-adenosyl-L-methionine: 0
  Number of proteins, keyword Serine/threonine-protein kinase: 0
  Number of proteins, keyword tRNA processing: 1
  Number of proteins, keyword Isoleucine biosynthesis: 0
  Number of proteins, keyword Ribosome biogenesis: 0
  Number of proteins, keyword Aminopeptidase: 0
  Number of proteins, keyword Phosphoprotein: 2
  Number of proteins, keyword Purine biosynthesis: 1
  Number of proteins, keyword Redox-active center: 0
  Number of proteins, keyword Glyoxylate bypass: 1
  Number of proteins, keyword Threonine biosynthesis: 1
  Number of proteins, keyword Methionine biosynthesis: 1
  Number of proteins, keyword Allosteric enzyme: 1
  Number of proteins, keyword Serine protease: 2
  Number of proteins, keyword NADP: 2
  Number of proteins, keyword Protease: 5
  Number of proteins, keyword Aminoacyl-tRNA synthetase: 7
  Number of proteins, keyword Magnesium: 9
  Number of proteins, keyword Hydrolase: 8
  Unique proteins (number): 2
R23I 100 μg/ml
  Common proteins for cells in control and treated cells (number): 69
  Ribosomal Proteins (number detected, 3 or more identified peptides): 23
  All Proteins / total protein detected (number): 395
  detection of ribosomal S1 protein: 23 (with S1)
  Number of proteins, keyword Aminotransferase: 1
  Number of proteins, keyword Aromatic amino acid biosynthesis: 1
  Number of proteins, keyword DNA replication: 2
  Number of proteins, keyword Endonuclease: 2
  Number of proteins, keyword Histidine biosynthesis: 1
  Number of proteins, keyword Nuclease: 2
  Number of proteins, keyword One-carbon metabolism: 1
  Number of proteins, keyword Potassium: 1
  Number of proteins, keyword Purine salvage: 0
  Number of proteins, keyword S-adenosyl-L-methionine: 1
  Number of proteins, keyword Serine/threonine-protein kinase: 0
  Number of proteins, keyword tRNA processing: 1
  Number of proteins, keyword Isoleucine biosynthesis: 1
  Number of proteins, keyword Ribosome biogenesis: 0
  Number of proteins, keyword Aminopeptidase: 0
  Number of proteins, keyword Phosphoprotein: 5
  Number of proteins, keyword Purine biosynthesis: 3
  Number of proteins, keyword Redox-active center: 3
  Number of proteins, keyword Glyoxylate bypass: 4
  Number of proteins, keyword Threonine biosynthesis: 2
  Number of proteins, keyword Methionine biosynthesis: 3
  Number of proteins, keyword Allosteric enzyme: 4
  Number of proteins, keyword Serine protease: 3
  Number of proteins, keyword NADP: 6
  Number of proteins, keyword Protease: 11
  Number of proteins, keyword Aminoacyl-tRNA synthetase: 19
  Number of proteins, keyword Magnesium: 33
  Number of proteins, keyword Hydrolase: 31
  Unique proteins (number): 176
